Activity calls are given as the source filed them.
How the values were obtained:
[1] = system: INS1; assay: beta cell apoptosis inhibitors, cytokine rescue, dose response, luminescence, retest (AID 449756); type: functional, cell-based; settings: Rattus norvegicus;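 further: cell death triggered by IL-1 beta plus TNF-alpha plus IFN-gamma mixture; protective hits raise ATP signal compared with cytokine alone wells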
[2] = biological target: Neurotensin receptor type 1 (Homo sapiens, UniProt P30989); type: functional;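 further: Image-based confirmatory dose-response assay measuring agonist activity at NTR1; NTR1-expressing U2OS osteosarcoma cells imaged for beta-arrestin GFP spot formation; agonist potency where compounds increase beta-arrestin recruitment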
Sequence of Neurotensin receptor type 1 (P30989 whole entry): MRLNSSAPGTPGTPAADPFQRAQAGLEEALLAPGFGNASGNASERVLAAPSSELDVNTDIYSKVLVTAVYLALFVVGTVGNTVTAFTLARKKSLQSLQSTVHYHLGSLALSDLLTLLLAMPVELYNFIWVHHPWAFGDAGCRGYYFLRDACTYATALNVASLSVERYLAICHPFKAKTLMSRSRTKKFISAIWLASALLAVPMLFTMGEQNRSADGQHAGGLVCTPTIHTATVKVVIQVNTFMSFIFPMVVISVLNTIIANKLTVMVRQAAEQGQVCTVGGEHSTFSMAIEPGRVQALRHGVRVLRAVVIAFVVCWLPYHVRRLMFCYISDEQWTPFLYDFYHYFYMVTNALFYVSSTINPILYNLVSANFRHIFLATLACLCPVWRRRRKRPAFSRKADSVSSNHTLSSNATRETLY

[3] = C. albicans growth with fluconazole, confirmation, fluorescence, retest (AID 2467); type: functional, cell-based
[4] = biological target: T1, Intestinal-type alkaline phosphatase (Homo sapiens, UniProt P09923); assay: human intestinal alkaline phosphatase activators, dose response, biochemical, luminescence, uHTS hits (AID 463120); type: functional
T1 sequence (P09923 whole entry): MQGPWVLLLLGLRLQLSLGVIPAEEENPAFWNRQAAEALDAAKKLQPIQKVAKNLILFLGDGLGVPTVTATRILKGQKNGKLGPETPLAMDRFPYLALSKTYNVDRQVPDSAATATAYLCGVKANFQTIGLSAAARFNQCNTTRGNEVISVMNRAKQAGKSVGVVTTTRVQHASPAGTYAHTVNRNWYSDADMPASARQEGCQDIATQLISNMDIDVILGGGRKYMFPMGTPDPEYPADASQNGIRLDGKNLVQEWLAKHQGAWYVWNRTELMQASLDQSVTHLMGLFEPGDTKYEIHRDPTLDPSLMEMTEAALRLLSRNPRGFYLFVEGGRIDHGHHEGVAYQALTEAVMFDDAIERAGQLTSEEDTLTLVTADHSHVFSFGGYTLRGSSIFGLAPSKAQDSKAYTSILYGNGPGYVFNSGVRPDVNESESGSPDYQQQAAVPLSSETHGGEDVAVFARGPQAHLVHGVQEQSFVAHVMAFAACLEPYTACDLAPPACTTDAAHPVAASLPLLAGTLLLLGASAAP

[5] = biological target: Intestinal-type alkaline phosphatase (Mus musculus, UniProt P24822); assay: PubChem AID 488874; type: functional
Sequence of Intestinal-type alkaline phosphatase (Mus musculus, UniProt P24822) (P24822 whole entry): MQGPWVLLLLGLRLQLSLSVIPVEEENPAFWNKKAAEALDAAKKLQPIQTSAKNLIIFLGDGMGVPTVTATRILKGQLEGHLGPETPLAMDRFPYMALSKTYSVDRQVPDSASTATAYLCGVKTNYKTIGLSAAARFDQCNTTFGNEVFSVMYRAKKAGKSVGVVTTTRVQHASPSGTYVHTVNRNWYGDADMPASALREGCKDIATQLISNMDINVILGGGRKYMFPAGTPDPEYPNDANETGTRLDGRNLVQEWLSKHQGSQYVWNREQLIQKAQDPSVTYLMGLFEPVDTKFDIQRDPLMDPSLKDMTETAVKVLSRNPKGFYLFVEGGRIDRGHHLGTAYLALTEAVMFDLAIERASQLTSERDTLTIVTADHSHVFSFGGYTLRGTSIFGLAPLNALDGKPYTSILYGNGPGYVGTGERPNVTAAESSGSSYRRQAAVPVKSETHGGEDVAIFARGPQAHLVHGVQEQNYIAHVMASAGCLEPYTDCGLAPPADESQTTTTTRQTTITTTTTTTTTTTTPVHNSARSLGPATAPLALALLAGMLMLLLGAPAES

[6] = human group III sPLA2 inhibitors, dose response, biochemical, QFRET, IC50 (AID 743457);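 further: green fluorescence rise as the enzyme cleaves BODIPY PC-A2 in liposomes; potency for inhibition of the enzyme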
[7] = biological target: T1, Intestinal-type alkaline phosphatase; assay: human IAP activators, dose response, biochemical, luminescent, uHTS hits, set 2 (AID 488817); type: functional;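 further: potency of activators that raise enzyme activity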
[8] = biological target: T2, Alkaline phosphatase, tissue-nonspecific isozyme (Homo sapiens, UniProt P05186); assay: TNAP enzyme activators, dose response, selectivity assay for human IAP activator project, biochemical, TNAP isozyme, human IAP uHTS hits (AID 488886); type: functional;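 further: potency of compounds raising TNAP activity as a selectivity check on IAP activators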
T2 sequence (P05186 whole entry): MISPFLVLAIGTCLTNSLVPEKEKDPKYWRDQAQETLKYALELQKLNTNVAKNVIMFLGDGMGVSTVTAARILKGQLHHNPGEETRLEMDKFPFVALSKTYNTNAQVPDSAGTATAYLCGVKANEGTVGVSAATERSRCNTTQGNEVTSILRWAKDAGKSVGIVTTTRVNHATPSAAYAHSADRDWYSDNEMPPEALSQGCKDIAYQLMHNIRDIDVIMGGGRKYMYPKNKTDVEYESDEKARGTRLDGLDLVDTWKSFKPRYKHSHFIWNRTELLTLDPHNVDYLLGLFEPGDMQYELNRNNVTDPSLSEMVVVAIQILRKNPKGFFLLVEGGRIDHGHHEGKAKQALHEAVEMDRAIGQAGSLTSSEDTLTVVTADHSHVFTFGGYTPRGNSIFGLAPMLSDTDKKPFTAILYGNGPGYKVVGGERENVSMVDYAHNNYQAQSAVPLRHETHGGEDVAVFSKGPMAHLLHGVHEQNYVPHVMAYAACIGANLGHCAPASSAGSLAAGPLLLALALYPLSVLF

[9] = NIH-3T3 fibroblast cytotoxicity, dose response, cytotoxicity control, cell-based, fluorescence, Alamar Blue, secondary assay (AID 2327); type: functional;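 further: NIH-3T3 mouse fibroblasts cultured with fluconazole at 8 µg/mL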
[10] = growth suppression of PTEN-null colon cells, dose response, cell-based, HCT116 PTEN knockout (AID 1047); type: functional;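 further: HCT116 colon tumor cells with PTEN knocked out; cells exposed to compound for 60 hours before readout; potency for loss of cell viability measured by luminescence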
[11] = biological target: Melanocortin receptor 4 (Homo sapiens, UniProt P32245); type: functional, cell-based;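 further: Cell-based assay with luminescence read-out, confirmatory dose-response testing for agonist activity of biased ligands at MC4R; human U2OS cells with tagged receptor and beta-arrestin; potency of agonists that increase receptor coupling to beta-arrestin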
Sequence of Melanocortin receptor 4 (P32245 whole entry): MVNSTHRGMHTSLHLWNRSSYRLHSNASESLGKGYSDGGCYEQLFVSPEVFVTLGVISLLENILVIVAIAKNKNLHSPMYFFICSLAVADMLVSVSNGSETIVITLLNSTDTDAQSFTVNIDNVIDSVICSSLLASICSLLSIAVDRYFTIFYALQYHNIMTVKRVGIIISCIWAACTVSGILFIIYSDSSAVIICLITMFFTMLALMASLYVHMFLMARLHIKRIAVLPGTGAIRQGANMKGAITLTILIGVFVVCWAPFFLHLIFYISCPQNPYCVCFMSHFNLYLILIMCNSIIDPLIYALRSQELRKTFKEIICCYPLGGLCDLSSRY

[12] = system: BJ; assay: cytotoxicity toward Ras-transformed BJeLR fibroblasts, dose response, cell-based, alamar blue fluorescence, cherrypicked samples (AID 2631); type: functional; settings: Homo sapiens;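 further: confirmatory dose-response assay in RAS-dependent BJ fibroblasts engineered with TERT, LT and ST, with cytotoxicity read by fluorescence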
[13] = system: BJ; assay: cells; type: functional, cell-based; settings: Homo sapiens
[14] = growth suppression of beta-catenin-knockout colon cells, dose response, cell-based, HCT116, human colon tumor (AID 1045); type: functional;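 further: HCT116 colon tumor cells with beta catenin knocked out; cells exposed to compound for 60 hours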
[15] = inhibitors of firefly luciferase expression or activity, dose response, H4 neuroglioma cells, luminescence (AID 1990); type: functional, cell-based
[16] = inhibitors of SNCA 5'UTR-driven reporter translation, confirmation, H4 neuroglioma cells, luminescence (AID 1988); type: functional, cell-based
[17] = Cytotoxicity screening for potential Inhibitors of Bacterial Capsule Biogenesis. [Related pubchem assays (depositor defined):AID488970]; type: functional
[18] = Luminescence Cell-Based Dose Response HTS to Identify Inhibitors of 5'UTR Stem-Loop Driven Prion Protein mRNA Translation in H4 Neuroglioblastoma Cells. [Related pubchem assays: 1827 (Project Summary), 1813 (Primary HTS)]; type: functional
[19] = biological target: Galanin receptor type 2 (Homo sapiens, UniProt O43603); assay: Dose Response cell-based high-throughput screening assay to identify agonists of galanin receptor 2 (GALR2). [Related pubchem assays: 864 ]; type: functional
Sequence of Galanin receptor type 2 (O43603 whole entry): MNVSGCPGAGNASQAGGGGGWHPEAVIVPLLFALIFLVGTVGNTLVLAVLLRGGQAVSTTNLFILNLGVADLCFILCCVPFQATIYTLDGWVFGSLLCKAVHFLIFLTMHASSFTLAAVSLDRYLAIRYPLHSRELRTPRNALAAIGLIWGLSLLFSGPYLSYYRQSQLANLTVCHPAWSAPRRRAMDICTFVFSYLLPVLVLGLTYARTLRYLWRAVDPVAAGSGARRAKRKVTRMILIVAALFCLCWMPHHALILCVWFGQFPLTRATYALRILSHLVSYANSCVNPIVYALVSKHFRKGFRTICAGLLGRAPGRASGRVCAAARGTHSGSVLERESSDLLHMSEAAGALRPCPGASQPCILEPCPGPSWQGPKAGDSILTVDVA

[20] = cytotoxicity toward DRD oncogenic fibroblasts, dose response, cell-based, non-viral oncogenic, luminescence (AID 1934); type: functional; settings: Homo sapiens
[21] = system: BJ; assay: cytotoxicity toward BJ-TERT fibroblasts, dose response, cell-based, RAS-independent, luminescence (AID 1933); type: functional; settings: Homo sapiens
[22] = system: BJ; assay: cytotoxicity toward BJ-TERT-LT-ST fibroblasts, dose response, cell-based, RAS-independent, luminescence (AID 1935); type: functional; settings: Homo sapiens;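 further: BJ fibroblasts immortalized with TERT plus LT and ST oncogenes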
[23] = biological target: Mu-type opioid receptor (Homo sapiens, UniProt P35372); assay: HTS Image-Based Screen for Agonists of the MOR Receptor. [Related pubchem assays (depositor defined):AID1777, AID1785, AID1786, AID2133]; type: functional;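 further: imaging of beta-arrestin GFP recruitment into spots after receptor activation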
Sequence of Mu-type opioid receptor (P35372 whole entry): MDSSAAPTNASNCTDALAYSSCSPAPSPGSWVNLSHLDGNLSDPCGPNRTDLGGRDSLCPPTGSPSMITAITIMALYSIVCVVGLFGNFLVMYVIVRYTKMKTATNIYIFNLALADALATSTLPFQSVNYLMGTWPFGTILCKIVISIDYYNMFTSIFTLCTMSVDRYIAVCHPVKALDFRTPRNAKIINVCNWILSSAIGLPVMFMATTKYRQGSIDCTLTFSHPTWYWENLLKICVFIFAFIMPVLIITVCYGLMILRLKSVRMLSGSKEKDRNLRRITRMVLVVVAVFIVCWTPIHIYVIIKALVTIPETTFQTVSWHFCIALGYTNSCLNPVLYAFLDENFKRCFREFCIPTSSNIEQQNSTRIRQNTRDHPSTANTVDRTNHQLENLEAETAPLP

[24] = biological target: T3, Delta-type opioid receptor (Homo sapiens, UniProt P41143); assay: HTS Image-Based Screen for Antagonists of the DOR Receptor. [Related pubchem assays (depositor defined):AID1777, AID1785, AID1786, AID2133]; type: functional
T3 sequence (P41143 whole entry): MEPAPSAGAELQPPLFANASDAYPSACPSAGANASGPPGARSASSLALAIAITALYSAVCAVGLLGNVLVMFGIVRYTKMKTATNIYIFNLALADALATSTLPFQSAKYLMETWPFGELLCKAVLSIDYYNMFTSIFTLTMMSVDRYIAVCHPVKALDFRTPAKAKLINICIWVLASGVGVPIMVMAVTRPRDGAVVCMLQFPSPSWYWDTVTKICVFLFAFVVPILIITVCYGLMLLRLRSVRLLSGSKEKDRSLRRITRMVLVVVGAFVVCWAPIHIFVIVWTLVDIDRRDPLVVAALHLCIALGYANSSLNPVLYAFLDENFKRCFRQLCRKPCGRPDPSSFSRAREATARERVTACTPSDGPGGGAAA

[25] = biological target: T3, Delta-type opioid receptor; assay: HTS Image-Based Screen for Agonists of the DOR Receptor. [Related pubchem assays (depositor defined):AID1777, AID1786, AID2133]; type: functional
[26] = biological target: T4, Kappa-type opioid receptor (Homo sapiens, UniProt P41145); type: functional
T4 sequence (P41145 whole entry): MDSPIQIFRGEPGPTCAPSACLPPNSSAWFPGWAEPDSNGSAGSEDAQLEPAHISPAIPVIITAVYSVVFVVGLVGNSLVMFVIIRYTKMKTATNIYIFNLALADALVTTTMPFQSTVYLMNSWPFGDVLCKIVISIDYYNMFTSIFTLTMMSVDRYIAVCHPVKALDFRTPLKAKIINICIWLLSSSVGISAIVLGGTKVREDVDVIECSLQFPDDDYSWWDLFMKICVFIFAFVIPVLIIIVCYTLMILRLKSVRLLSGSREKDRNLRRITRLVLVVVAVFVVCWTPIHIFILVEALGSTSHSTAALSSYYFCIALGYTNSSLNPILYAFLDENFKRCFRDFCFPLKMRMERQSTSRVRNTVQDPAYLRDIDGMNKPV

[27] = biological target: T4, Kappa-type opioid receptor; type: functional; remark: listed apart in the source
[28] = biological target: Wee1-like protein kinase (Homo sapiens, UniProt P30291); assay: G2/M cell cycle arrest in HeLa, late-stage follow-up, mechanism study for Wee1 degradation inhibitor project, FACS, panel member Wee1 Degradation (AID 2088)
Sequence of Wee1-like protein kinase (P30291 whole entry): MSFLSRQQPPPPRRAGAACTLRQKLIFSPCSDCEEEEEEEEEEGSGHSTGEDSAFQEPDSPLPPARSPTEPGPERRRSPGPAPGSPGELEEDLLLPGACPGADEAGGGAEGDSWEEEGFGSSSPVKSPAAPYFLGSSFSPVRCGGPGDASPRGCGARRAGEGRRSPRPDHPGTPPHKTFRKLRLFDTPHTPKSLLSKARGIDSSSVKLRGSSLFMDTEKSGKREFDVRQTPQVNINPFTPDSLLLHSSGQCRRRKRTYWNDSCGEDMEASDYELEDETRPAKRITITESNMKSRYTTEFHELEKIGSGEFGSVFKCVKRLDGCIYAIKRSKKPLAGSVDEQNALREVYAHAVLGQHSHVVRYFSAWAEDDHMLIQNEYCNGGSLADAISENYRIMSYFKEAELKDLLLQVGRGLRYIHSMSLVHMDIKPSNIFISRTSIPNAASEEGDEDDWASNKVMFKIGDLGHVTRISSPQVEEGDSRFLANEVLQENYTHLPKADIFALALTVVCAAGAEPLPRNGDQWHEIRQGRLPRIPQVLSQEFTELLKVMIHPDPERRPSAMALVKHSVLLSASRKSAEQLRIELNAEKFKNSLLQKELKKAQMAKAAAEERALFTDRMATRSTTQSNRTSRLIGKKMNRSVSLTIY

[29] = biological target: G2/mitotic-specific cyclin-B1 (Homo sapiens, UniProt P14635); assay: G2/M cell cycle arrest in HeLa, late-stage follow-up, mechanism study for Wee1 degradation inhibitor project, FACS, panel member Cyclin B Degradation (AID 2088)
Sequence of G2/mitotic-specific cyclin-B1 (P14635 whole entry): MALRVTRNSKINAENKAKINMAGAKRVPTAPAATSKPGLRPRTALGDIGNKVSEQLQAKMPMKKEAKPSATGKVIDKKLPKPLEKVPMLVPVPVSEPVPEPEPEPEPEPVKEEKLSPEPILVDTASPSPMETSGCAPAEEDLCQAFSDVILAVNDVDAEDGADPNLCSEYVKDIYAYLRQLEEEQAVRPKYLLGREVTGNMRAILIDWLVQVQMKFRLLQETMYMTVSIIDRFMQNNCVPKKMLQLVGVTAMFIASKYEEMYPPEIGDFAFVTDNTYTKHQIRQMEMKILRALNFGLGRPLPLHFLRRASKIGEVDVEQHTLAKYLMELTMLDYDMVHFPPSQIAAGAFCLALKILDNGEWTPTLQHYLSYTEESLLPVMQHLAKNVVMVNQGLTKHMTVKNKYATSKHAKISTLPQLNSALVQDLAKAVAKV

With `c1ccc(C(c2ccccc2)N2CCN(c3nc4ccccc4n4cnnc34)CC2)cc1` the AC50 [1] was 4.56 µM (active) and the EC50 [2] was 26.4 µM (inactive).
With `O=C(NNC(=S)NC1CCCCC1)c1ccccc1Br` the EC50 [3] was 2.94 µM (active), the EC50 [4] was 12.1 µM (active) and the IC50 [5] was 50.3 µM (active). For the same molecule, the IC50 [6] was > 122 µM (inactive), the EC50 [7] was 14.9 µM (active) and the EC50 [8] was 16.1 µM (active). The EC50 [9] was 21.7 µM (inconclusive).
For `CCCOc1ccc(C(=O)C(CCC(CNCC)C(=O)c2ccc(OCCC)cc2)CNCC)cc1` (centres undefined), the EC50 [10] was 1.76 µM (active), the EC50 [11] was > 89.2 µM (inactive) and the EC50 [12] was 0.513 µM (active). For the same molecule, the EC50 [13] was 4.61 µM (active), the EC50 [14] was 1.88 µM (active) and the EC50 [15] was > 120 µM (not active). For the same molecule, the EC50 [16] was 6.08 µM (active), the CC50 [17] was 3.18 µM (active) and the EC50 [18] was 8.92 µM (active). For the same molecule, the EC50 [19] was > 55.7 µM (not active), the EC50 [20] was 3.31 µM (active) and the EC50 [21] was 2.57 µM (inconclusive). The EC50 [22] was 2.72 µM (inconclusive).
In the case of `Cc1ccc(Cl)cc1NC(=S)N(Cc1cccs1)C1CCCC1`, the EC50 [23] is reported as > 32 µM (inactive), the IC50 [24] is reported as > 32 µM (inactive) and the EC50 [25] is reported as > 32 µM (inactive). For the same molecule, the EC50 [26] was 13.1 µM and the EC50 [27] was 14 µM.
With `Cc1cc(O)nc(-n2nc(C)cc2NC(=O)c2cccc(Br)c2)n1` the EC50 [28] was > 49.7 µM (inactive) and the EC50 [29] was > 49.7 µM (inactive).

Reference: ChEMBL document CHEMBL1201862, “PubChem BioAssay data set” (2004)
